Among the data in ChEMBL document CHEMBL3227984, “5-Substituted uracil arabinonucleosides as potential antiviral agents” (J Med Chem, 1979) are ID50 values, retold here.

Where only a bound is given, the exact number is not on record here.

The test system of this assay is Vaccinia virus. Briefly: Antiviral activity against Vaccinia virus infected in primary rabbit kidney cells assessed as inhibition of virus-induced cytopathogenicity. Type of assay: functional, Orthopoxvirus vaccinia.
Take `Cc1cn([C@@H]2O[C@H](CO)[C@@H](O)[C@@H]2O)c(=O)[nH]c1=O`: the ID50 is listed as 3.9 ×10⁻⁶ M.

`O=c1[nH]c(=O)n([C@@H]2O[C@H](CO)[C@@H](O)[C@@H]2O)cc1[N+](=O)[O-]`: the ID50 was more than 6.9 ×10⁻⁴ M.

For `N#Cc1cn([C@@H]2O[C@H](CO)[C@@H](O)[C@@H]2O)c(=O)[nH]c1=O`, the ID50 was more than 3.7 ×10⁻⁴ M.

With `O=c1[nH]c(=O)n([C@@H]2O[C@H](CO)[C@@H](O)[C@@H]2O)cc1O`, the ID50 is more than 7.7 ×10⁻⁴ M.

In the case of `O=c1ccn([C@@H]2O[C@H](CO)[C@@H](O)[C@@H]2O)c(=O)[nH]1` [ARAURIDINE], the ID50 turned out to be 8.2 ×10⁻⁴ M.
